Measurements reported in BindingDB's records for doi:10.7270/Q2TX3CTT (Broad Institute, 2010).
Structures can show the parent of a compound that is named as a salt.

Biological target: Glycogen synthase kinase-3 beta (Homo sapiens, UniProt P49841)
Assay: concentration-response blocking of human GSK3B – biochemical, luminescence, cell-free homogeneous, retest, dose response (AID 434954)

Glycogen synthase kinase-3 beta, sequence (P49841 whole entry): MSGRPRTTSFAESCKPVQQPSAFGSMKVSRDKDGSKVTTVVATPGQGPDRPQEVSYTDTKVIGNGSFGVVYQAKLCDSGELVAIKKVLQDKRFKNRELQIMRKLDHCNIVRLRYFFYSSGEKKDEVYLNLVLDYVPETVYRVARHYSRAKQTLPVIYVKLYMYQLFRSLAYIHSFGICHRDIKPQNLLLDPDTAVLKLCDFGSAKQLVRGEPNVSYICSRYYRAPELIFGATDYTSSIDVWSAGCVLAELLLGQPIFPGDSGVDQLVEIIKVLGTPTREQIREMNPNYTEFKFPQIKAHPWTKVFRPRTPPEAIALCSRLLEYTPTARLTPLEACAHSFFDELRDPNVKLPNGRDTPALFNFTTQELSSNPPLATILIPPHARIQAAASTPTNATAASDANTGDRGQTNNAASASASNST

Row | SMILES | EC50
1 | CCOC(=O)c1cnc2ccc(Cl)cc2c1N1CCN(C)CC1 [6-chloro-4-(4-methyl-1-piperazinyl)-3-quinolinecarboxylic acid ethyl ester] | 14.8 µM
2 | CSc1nc(C)cc(-n2ccc(=O)[nH]c2=O)n1 [1-[6-methyl-2-(methylthio)-4-pyrimidinyl]pyrimidine-2,4-dione] | 25.8 µM
3 | COCCCNc1nc(N)c([N+](=O)[O-])c(Nc2ccccc2OC)n1 [4-N-(2-methoxyphenyl)-2-N-(3-methoxypropyl)-5-nitropyrimidine-2,4,6-triamine] | 0.231 µM
4 | Cc1ccc(C(=O)c2coc3ccc(O)c(CN(C)C)c23)cc1 [(4-Dimethylaminomethyl-5-hydroxy-benzofuran-3-yl)-p-tolyl-methanone] | > 300 µM
5 | C=CCN=C(NC#N)SC [methyl N-cyano-N'-prop-2-enyl-carbamimidothioate] | > 300 µM
6 | O=C(CCSc1nnc(-c2ccncc2)o1)Nc1ccc(F)cc1 [N-(4-fluorophenyl)-3-[(5-pyridin-4-yl-1,3,4-oxadiazol-2-yl)thio]propanamide] | > 300 µM
7 | C=CCNC(=O)c1onc(CSc2cccc(OC)c2)c1C(=O)NCC=C [3-[(3-methoxyphenyl)sulfanylmethyl]-N4,N5-bis(prop-2-enyl)-1,2-oxazole-4,5-dicarboxamide] | > 300 µM
8 | O=C(CSc1nnc(COc2ccc(Cl)cc2)o1)N1c2ccccc2CCc2ccccc21 [2-[5-(4-Chloro-phenoxymethyl)-[1,3,4]oxadiazol-2-ylsulfanyl]-1-(10,11-dihydro-dibenzo[b,f]azepin-5-yl)-ethanone] | > 300 µM
9 | O=C(CCSCCc1ccccn1)Nc1cc(F)ccc1F [N-(2,5-difluorophenyl)-3-(2-pyridin-2-ylethylsulfanyl)propanamide] | > 300 µM
10 | O=C(C1CCCN(S(=O)(=O)c2ccccc2)C1)N1CCN(c2ncccn2)CC1 (stereo not given) [[1-(phenylsulfonyl)piperidin-3-yl]-(4-pyrimidin-2-ylpiperazin-1-yl)methanone] | > 300 µM
11 | Cc1ccc(C(=O)Nc2ncc([N+](=O)[O-])s2)cc1 | > 300 µM
12 | COCCn1c(SCC(=O)Nc2cccc(S(N)(=O)=O)c2)nc2ccccc21 [2-[1-(2-methoxyethyl)benzimidazol-2-yl]sulfanyl-N-(3-sulfamoylphenyl)ethanamide] | > 300 µM
13 | Cn1c(SCc2cccc(Br)c2)nnc1-c1ccncc1 [4-[5-(3-Bromo-benzylsulfanyl)-4-methyl-4H-[1,2,4]triazol-3-yl]-pyridine] | > 300 µM
14 | CCCNCC1COc2ccccc2O1 (stereo not given) [2,3-dihydro-1,4-benzodioxin-3-ylmethyl(propyl)amine;hydrochloride] | > 300 µM
15 | Nc1nc(Nc2ccccc2F)nc(NCCO)c1[N+](=O)[O-] [2-[6-Amino-2-(2-fluoro-phenylamino)-5-nitro-pyrimidin-4-ylamino]-ethanol] | 15.6 µM
16 | O=C(Nc1ncnc2sc3c(c12)CCCC3)c1ccncc1 [N-(5,6,7,8-tetrahydro-[1]benzothiolo[2,3-d]pyrimidin-4-yl)-4-pyridinecarboxamide] | 42.4 µM
17 | O=C(O)CCn1cc(C(=O)O)c(-c2ccccc2)n1 [1-(2-carboxyethyl)-3-phenyl-4-pyrazolecarboxylic acid] | > 300 µM
18 | O=C(C[n+]1ccc(C=Cc2ccccc2)cc1)c1ccc2c(c1)OCCO2 | 125 µM
19 | O=c1cc(-c2ccncc2)oc2ccccc12 [2-(4-pyridyl)chromone] | 17.9 µM
20 | COCCn1c(SCC(=O)Nc2ccc(S(N)(=O)=O)cc2)nc2ccccc21 | > 300 µM
21 | Nc1nonc1-n1nnc(C(=O)N/N=C/c2ccncc2)c1CN1CCCCC1 | 0.181 µM
22 | COc1cccc(C(=O)CN2C=CC=CC2=CN=O)c1 [2-[(hydroxyimino)methyl]-1-[2-(3-methoxyphenyl)-2-oxoethyl]pyridinium] | > 300 µM
23 | CCC1(C)NC(=O)N(CC(=O)Nc2sc3c(c2C(N)=O)CCC3)C1=O (stereo not given) [2-[2-[4-ethyl-4-methyl-2,5-bis(oxidanylidene)imidazolidin-1-yl]ethanoylamino]-5,6-dihydro-4H-cyclopenta[b]thiophene-3-carboxamide] | 30.3 µM
24 | O=C1NC(c2cccnc2)Nc2sc3c(c21)CCCC3 (stereo not given) [SMR000114421] | > 300 µM

Row | SMILES | EC50
25 | Cc1ccc(Sc2ccc(CN=O)cc2[N+](=O)[O-])cc1 [4-[(4-methylphenyl)thio]-3-nitrobenzaldehyde oxime] | 51.7 µM
26 | Cc1cc2oc(=O)cc(Cn3ccnc3)c2cc1O [6-hydroxy-4-(imidazol-1-ylmethyl)-7-methylchromen-2-one] | > 300 µM
27 | CCOC(=O)c1c(C)[nH]c(C)c1C(=O)COC(=O)CNC(=O)c1ccc(OCC)cc1 [4-[2-[2-[[(4-ethoxyphenyl)-oxomethyl]amino]-1-oxoethoxy]-1-oxoethyl]-2,5-dimethyl-1H-pyrrole-3-carboxylic acid ethyl ester] | > 300 µM
28 | COc1ccc(C2CC(=O)C3C(=Nc4ncnn4C3c3ccccc3C)C2)cc1 (stereo not given) | > 300 µM
29 | O=C(Nc1ccnn1C1CCN(Cc2cccc(OCCO)c2)CC1)C1CCCC1 [N-[2-[1-[[3-(2-hydroxyethyloxy)phenyl]methyl]piperidin-4-yl]pyrazol-3-yl]cyclopentanecarboxamide] | > 300 µM
30 | N#CC(C#N)c1nc2ccccc2nc1-[n+]1cccc([N-]C(=O)c2ccccc2)c1 | > 300 µM
31 | CC(c1ccccc1)n1c(CCCO)nc2ccccc21 (stereo not given) [3-[1-(1-Phenyl-ethyl)-1H-benzoimidazol-2-yl]-propan-1-ol] | > 300 µM
32 | CCc1ccc(C(=O)c2cnc3ccc(OC)cc3c2N2CCN(CC)CC2)cc1 [(4-ethylphenyl)-[4-(4-ethylpiperazin-1-yl)-6-methoxy-quinolin-3-yl]methanone] | 20.7 µM
33 | COc1cccc(N(CC(=O)NCC2CCCO2)C(=O)CCC(=O)Nc2nccs2)c1 (stereo not given) [N'-(3-methoxyphenyl)-N'-[2-oxo-2-(oxolan-2-ylmethylamino)ethyl]-N-(1,3-thiazol-2-yl)butanediamide] | > 300 µM
34 | Cc1c([N+](=O)[O-])c2ccc(O)cc2n1-c1ccccc1 [2-methyl-3-nitro-1-phenylindol-6-ol] | 2.14 µM
35 | CCCCOC(=O)c1ccc(O)cc1 [butyl 4-hydroxybenzoate] | > 300 µM
36 | CCSc1ccc2nnc(-c3cccc(F)c3)n2n1 [6-(ethylthio)-3-(3-fluorophenyl)-[1,2,4]triazolo[4,3-b]pyridazine] | 18.7 µM
37 | Nc1nc(NCCO)nc(NCc2ccccc2)c1[N+](=O)[O-] [2-[[4-amino-6-(benzylamino)-5-nitropyrimidin-2-yl]amino]ethanol] | 20.2 µM
38 | O=C(CN1C(=O)CCC1=O)Nc1ccc(Cc2ccc(NC(=O)CN3C(=O)CCC3=O)cc2)cc1 [2-(2,5-dioxo-1-pyrrolidinyl)-N-[4-[[4-[[2-(2,5-dioxo-1-pyrrolidinyl)-1-oxoethyl]amino]phenyl]methyl]phenyl]acetamide] | > 300 µM
39 | NC(=NNC(=O)c1ccc(Cl)cc1)c1cnccn1 [N-[(Z)-[azanyl(pyrazin-2-yl)methylidene]amino]-4-chloranyl-benzamide] | > 300 µM
40 | CC(=O)Oc1ccc2occ(C(=O)c3ccccc3)c2c1 [acetic acid (3-benzoyl-5-benzofuranyl) ester] | > 300 µM
41 | Oc1ccccc1CN=Nc1nnn[nH]1 [(6E)-6-[(2H-tetrazol-5-ylhydrazo)methylidene]-1-cyclohexa-2,4-dienone] | > 300 µM
42 | CN=C(NC#N)SCC(=O)c1ccc(Cl)cc1Cl [[2-(2,4-dichlorophenyl)-2-oxidanylidene-ethyl] N-cyano-N'-methyl-carbamimidothioate] | 3.19 µM
43 | O=C(NN=Cc1ccc(Br)s1)c1cccnc1 | > 300 µM
44 | COC(=O)C(CC(C)C)NC(=O)CSc1nc(-c2ccccc2)c(C#N)c(=O)[nH]1 (stereo not given) | > 300 µM
45 | CN1CCN(c2ccc([N+](=O)[O-])cc2Cl)CC1 [SMR000283168] | > 300 µM
46 | C=CCNC(=O)/C(=C\c1cccc([N+](=O)[O-])c1)NC(=O)c1ccccc1 | > 300 µM
47 | O=C(Nc1ccccc1)Nc1ccncc1 | > 300 µM
48 | O=C(c1cccs1)c1coc2ccc(O)cc12 | 4.73 µM

The next lines start with the values.

Row | EC50 | SMILES
49 | > 300 µM | CS(=O)(=O)c1nncn1-c1ccccc1 [MLS000062086]
50 | 4.13 µM | CCCCC(=O)Nc1ncc(Br)s1 [MLS000066333]
51 | > 300 µM | O=C(NCCCN1CCCC1=O)c1ccc2c(c1)NC(=O)c1ccccc1S2 [MLS000522698]
52 | > 300 µM | CC(C)c1ccc(C(=O)NCCCN2CCN(CCCNC(=O)c3ccc(C(C)C)cc3)CC2)cc1 [SMR000272164]
53 | > 300 µM | CCCCCC(=O)N1CCN(S(=O)(=O)c2ccc3c(c2)OCCCO3)CC1 [MLS001161784]
54 | > 300 µM | CS(=O)(=O)N1CCN(c2cccc(Cl)n2)CC1 [MLS000594331]
55 | 4.86 µM | CC(C)CC(=O)Nc1ncc([N+](=O)[O-])s1 [MLS001043214]
56 | > 300 µM | COCCNC(=O)c1ccc(Cl)c(Cl)c1 [SMR000069998]
57 | > 300 µM | O=C1CC(N2CCC(c3nc4ccccc4s3)CC2)C(=O)N1 (stereo not given) [MLS000063725]
58 | > 300 µM | CCCCn1nc(NC(=O)c2cccs2)c2cc3ccccc3nc21 [MLS000081455]
59 | 1.27 µM | Nc1nc(NCCCN2CCOCC2)nc(Nc2ccccc2F)c1[N+](=O)[O-] [MLS000769816]
60 | > 300 µM | Nc1nc(NCC2CCCO2)nc(Nc2cccc(Cl)c2)c1[N+](=O)[O-] (stereo not given) [SMR000434547]
61 | > 300 µM | Cc1cccc(C(=O)NCC(c2ccco2)N2CCc3ccccc32)c1 (stereo not given) [MLS001237444]
62 | 0.186 µM | CN(Cc1c(C(=O)NN=Cc2ccc(O)cc2)nnn1-c1nonc1N)C1CCCCC1 [MLS001142838]
63 | > 300 µM | CCn1c(-c2nn(C)cc2Cl)n[nH]c1=S [MLS000703969]
64 | > 300 µM | CCCN1CCN(CCCNC(=O)Cn2nc(C)n3c(cc4cc(OC)ccc43)c2=O)CC1 [MLS001110985]
65 | > 300 µM | COc1ccc(-c2nn(-c3ccccc3)cc2C=Nn2c(O)csc2=S)cc1 [MLS000558856]
66 | > 300 µM | CCc1ccccc1NC(=O)CSc1nnc(-c2ccncc2)o1 [SMR000324383]
67 | > 300 µM | C=CCN=C(NC#N)SCC(=O)NC(C)(C)C [MLS000078466]
68 | > 300 µM | COc1cc(OC)cc(C(=O)NCC2CCCN(C(=O)c3csc(C)n3)C2)c1 (stereo not given) [MLS001072180]
69 | > 300 µM | CC(C)CNC(=O)c1cccc(NC(=O)c2ccc(NC(=O)c3ccco3)cc2)c1 [MLS000088940]
70 | > 300 µM | CNc1nc(-c2ccccc2)nc(-c2ccccc2)c1C#N [MLS000539511]
